Among the data in patent publication US9096548B2, “Pyrazine amide compounds” (Boehringer Ingelheim International GmbH, priority 2013, dated 2015) are IC50 values, retold here.

Molecules are shown by their SMILES.

The first test has as its target T1, ENaC (Epithelial Sodium Channel) (Mus musculus, UniProt Q61180+Q9WU38+Q9WU39).
T1 construct: Mouse kidney M−1 cells were cultivated in DMEM; endogenous in cells; host or cells: Mouse kidney M-1 cells, cultivated with dexamethasone on transwell filters
T1 sequence (Q61180 1-699): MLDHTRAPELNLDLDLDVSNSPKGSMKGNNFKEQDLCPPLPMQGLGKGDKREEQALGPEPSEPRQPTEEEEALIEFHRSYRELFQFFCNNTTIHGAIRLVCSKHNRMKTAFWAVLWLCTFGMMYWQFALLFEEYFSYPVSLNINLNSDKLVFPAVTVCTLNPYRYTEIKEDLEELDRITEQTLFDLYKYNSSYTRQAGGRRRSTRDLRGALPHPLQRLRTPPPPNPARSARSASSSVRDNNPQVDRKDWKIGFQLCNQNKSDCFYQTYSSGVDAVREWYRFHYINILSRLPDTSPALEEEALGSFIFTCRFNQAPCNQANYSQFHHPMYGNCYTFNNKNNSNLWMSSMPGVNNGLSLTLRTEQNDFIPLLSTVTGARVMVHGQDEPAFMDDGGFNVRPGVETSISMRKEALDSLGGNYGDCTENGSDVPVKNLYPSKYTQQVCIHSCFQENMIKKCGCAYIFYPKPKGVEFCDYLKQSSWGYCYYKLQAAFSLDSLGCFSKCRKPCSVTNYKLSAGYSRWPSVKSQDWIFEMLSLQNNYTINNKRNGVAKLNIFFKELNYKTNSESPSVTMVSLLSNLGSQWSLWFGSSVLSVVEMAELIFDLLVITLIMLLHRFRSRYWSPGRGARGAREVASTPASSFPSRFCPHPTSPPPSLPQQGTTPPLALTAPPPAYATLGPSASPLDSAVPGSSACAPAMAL
T1 sequence (Q9WU38 1-638): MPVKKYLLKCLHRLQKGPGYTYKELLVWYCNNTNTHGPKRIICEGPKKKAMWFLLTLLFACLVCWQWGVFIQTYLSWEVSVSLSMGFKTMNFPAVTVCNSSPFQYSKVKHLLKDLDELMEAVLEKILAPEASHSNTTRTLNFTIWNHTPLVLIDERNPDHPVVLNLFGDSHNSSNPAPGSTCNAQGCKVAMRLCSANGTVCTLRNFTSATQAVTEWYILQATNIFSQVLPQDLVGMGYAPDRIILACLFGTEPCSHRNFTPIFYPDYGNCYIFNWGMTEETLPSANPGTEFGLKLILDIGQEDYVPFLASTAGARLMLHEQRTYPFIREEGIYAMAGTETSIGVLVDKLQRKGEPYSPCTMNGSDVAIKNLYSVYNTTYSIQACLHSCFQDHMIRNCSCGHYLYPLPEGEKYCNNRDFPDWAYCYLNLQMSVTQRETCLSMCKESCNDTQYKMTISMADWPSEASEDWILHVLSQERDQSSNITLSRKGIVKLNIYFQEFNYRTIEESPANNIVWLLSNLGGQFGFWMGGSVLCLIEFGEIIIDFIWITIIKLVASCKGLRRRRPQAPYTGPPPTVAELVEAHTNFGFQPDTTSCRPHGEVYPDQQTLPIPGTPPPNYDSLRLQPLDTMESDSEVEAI
T1 sequence (Q9WU39 1-655): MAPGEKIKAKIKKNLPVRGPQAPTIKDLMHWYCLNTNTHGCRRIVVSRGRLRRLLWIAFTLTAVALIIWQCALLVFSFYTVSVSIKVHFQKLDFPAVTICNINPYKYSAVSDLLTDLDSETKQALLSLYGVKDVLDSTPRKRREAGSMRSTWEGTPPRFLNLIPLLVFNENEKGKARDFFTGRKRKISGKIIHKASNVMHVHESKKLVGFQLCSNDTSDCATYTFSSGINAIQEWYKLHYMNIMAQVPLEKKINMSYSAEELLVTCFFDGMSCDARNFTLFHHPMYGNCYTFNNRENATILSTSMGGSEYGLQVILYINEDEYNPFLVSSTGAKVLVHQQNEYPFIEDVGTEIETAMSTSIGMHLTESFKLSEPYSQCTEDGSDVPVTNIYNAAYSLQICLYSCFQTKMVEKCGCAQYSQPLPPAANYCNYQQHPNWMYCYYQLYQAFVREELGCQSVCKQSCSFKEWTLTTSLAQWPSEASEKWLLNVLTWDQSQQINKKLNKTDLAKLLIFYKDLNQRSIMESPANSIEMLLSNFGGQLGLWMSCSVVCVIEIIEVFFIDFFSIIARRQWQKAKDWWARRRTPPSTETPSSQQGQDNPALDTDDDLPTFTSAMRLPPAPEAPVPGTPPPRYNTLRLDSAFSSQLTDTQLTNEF
Briefly: Ussing Chamber assay (short circuit current, amiloride sensitive I_SC). Format: cell-based. As to conditions: Ussing chamber, mouse kidney M-1 cells, short circuit current, compound added to the apical solution; read-out: IC50. How it is done: The IC50 values of the example compounds given above were determined in the Ussing Chamber assay.
Ussing Chamber: Mouse kidney M−1 cells were cultivated in DMEM containing 5% FCS and 5 μM dexamethasone for 10 to 12 days on polyester transwell filters. Filters were inserted into a teflon-coated well-plate which fit into the ussing chamber system. Prior to measurement the medium of M−1 cells was replaced with Caco-2 transport buffer (Invitrogen, Germany). During measurements, the Ussing chamber temperature was kept at 37° C. Short circuit currents (I_sc) were measured in the voltage-clamp mode with the software package Lab View for data acquisition and analysis. The transepithelial electrical resistance (TEER) was determined by the application of voltage steps of ±5 mV every 5 sec. Compounds were administered at a final concentration of 3 μM or at increasing concentrations (1-3-10 μM) to the apical solution. At the end of each experiment the amiloride sensitive I_SC was measured by adding 3 μM amiloride to the apical compartment. Results are expressed as inhibition in percent of the amiloride effect or as IC50.
Consider `Nc1nc(N)c(C(=O)N[C@H]2CCC[N+](CCCc3ccc(OCC(=O)NCCn4ccnc4)cc3)(CCCc3ccc(OCC(=O)NCCn4ccnc4)cc3)C2)nc1Cl` [6.15], for which the IC50 was found to be 0.009 µM.

As for `COc1ccc(CCC[N+]2(CCCc3ccc(OC)cc3)CCC(NC(=O)c3nc(Cl)c(N)nc3N)C2)cc1` (stereo not shown) [Example 1.1], the IC50 came to 0.03 µM.

Regarding `COc1ccc(CCC[N+]2(CCCc3ccc(OC)cc3)CC(NC(=O)c3nc(Cl)c(N)nc3N)[C@H](c3ccc(C)cc3)C2)cc1` (stereo partly shown) [Example 1.2], the IC50 amounted to 0.2 µM.

Consider `COc1ccc(CCC[N+]2(CCCc3ccc(OC)cc3)CCCCC(NC(=O)c3nc(Cl)c(N)nc3N)C2)cc1` (stereo not shown) [Example 1.3], for which the IC50 turned out to be 0.044 µM.

As to `COc1ccc(CCC[N+]2(CCCc3ccc(OC)cc3)CCC[C@H](NC(=O)c3nc(Cl)c(N)nc3N)C2)cc1` [Example 1.4], the IC50 is 0.004 µM.

Consider `COc1ccc(CCC[N+]2(CCCc3ccc(OC)cc3)CCC[C@@H](NC(=O)c3nc(Cl)c(N)nc3N)C2)cc1` [Example 1.5], for which the IC50 turned out to be 0.038 µM.

Turning to `COc1ccc(CCC[N+](C)(CCCc2ccc(OC)cc2)[C@@H]2C[C@H]2NC(=O)c2nc(Cl)c(N)nc2N)cc1` [Example 2.1], the IC50 turned out to be 0.08 µM.

For the molecule `COc1ccc(CCC[N+](C)(CCCc2ccc(OC)cc2)C[C@H](C)NC(=O)c2nc(Cl)c(N)nc2N)cc1` [Example 2.2], the IC50 worked out at 0.13 µM.

For the molecule `COc1ccc(CCC[N+](C)(CCCc2ccc(OC)cc2)CC(C)(C)NC(=O)c2nc(Cl)c(N)nc2N)cc1` [Example 2.3], the IC50 was 0.51 µM.

With `COc1ccc(CCC[N@+]2(C)CCC[C@H](NC(=O)c3nc(Cl)c(N)nc3N)C2)cc1` [Example 3.1], the IC50 turned out to be 0.75 µM.

Regarding `COc1ccc(CCC[N@@+]2(C)CCC[C@H](NC(=O)c3nc(Cl)c(N)nc3N)C2)cc1` [Example 3.2], the IC50 is 0.07 µM.

As to `COc1ccc(CCC[N+]2(CCCC3CCCCC3)CCCC(NC(=O)c3nc(Cl)c(N)nc3N)C2)cc1` (stereo not shown) [Example 3.3], the concentration for half-maximal inhibition (IC50) came to 0.099 µM.

Consider `COc1ccc(CCC[N+]2(CCCCc3ccccc3)CCCC(NC(=O)c3nc(Cl)c(N)nc3N)C2)cc1` (stereo not shown) [Example 3.4], for which the IC50 is 0.034 µM.

In the case of `COc1ccc(CCC[N+]2(CCCc3ccccc3)CCCC(NC(=O)c3nc(Cl)c(N)nc3N)C2)cc1` (stereo not shown) [Example 3.5], the IC50 amounted to 0.006 µM.

In the case of `COc1ccc(CCC[N+]2(CCc3ccccc3)CCCC(NC(=O)c3nc(Cl)c(N)nc3N)C2)cc1` (stereo not shown) [Example 3.6], the IC50 stood at 0.06 µM.

As for `COc1ccc(CCC[N+]2(Cc3ccccc3)CCCC(NC(=O)c3nc(Cl)c(N)nc3N)C2)cc1` (stereo not shown) [Example 3.7], the IC50 came out at 0.14 µM.

Regarding `COc1ccc(CCC[N+]2(C)CC(NC(=O)c3nc(Cl)c(N)nc3N)[C@H](c3ccc(C)cc3)C2)cc1` (stereo partly shown) [Example 3.8], the IC50 turned out to be 0.6 µM.

On to `COc1ccc(CCC[N+]2(CCCc3ccc(C(=O)N(CCCN(C)C)CCCN(C)C)cc3)CCCC(NC(=O)c3nc(Cl)c(N)nc3N)C2)cc1` (stereo not shown) [Example 5.3], for which the IC50 came out at 0.055 µM.

Consider `COc1ccc(CCC[N+]2(CCCc3ccc(C(=O)NCCCS(=O)(=O)O)cc3)CCCC(NC(=O)c3nc(Cl)c(N)nc3N)C2)cc1` (stereo not shown) [Example 5.4], for which the IC50 was found to be 0.26 µM.

As to `COc1ccc(CCC[N+]2(CCCc3ccc(C(=O)NCCOCCOCCO)cc3)CCCC(NC(=O)c3nc(Cl)c(N)nc3N)C2)cc1` (stereo not shown) [Example 5.5], the IC50 was 0.07 µM.

The test is the same for the next values; noted with them: Ussing chamber, mouse kidney M-1 cells, short circuit current; unit inferred; read-out: IC50.
For the molecule `COc1ccc(CCC[N+](C)(CCCc2ccc(OC)cc2)CC(NC(=O)c2nc(Cl)c(N)nc2N)c2ccccc2)cc1` (stereo not shown) [Example 2, {2-[(3,5-Diamino-6-chloro-pyrazine-2-carbonyl)-amino]-2-phenyl-ethyl}-bis-[3-(4-methoxy-phenyl)-propyl]-methyl-ammonium chloride], the IC50 is 0.03 µM.

The same test, now with this note: Ussing chamber, mouse kidney M-1 cells, short circuit current; value printed in the example text with μM; read-out: IC50.
For `COc1ccc(CCC[N+]2(C)CCC(NC(=O)c3nc(Cl)c(N)nc3N)C2)cc1` (stereo not shown) [Example 3, 3-[(3,5-Diamino-6-chloro-pyrazine-2-carbonyl)-amino]-1-[3-(4-methoxy-phenyl)-propyl]-1-methyl-pyrrolidinium chloride], the IC50 was determined as 0.79 µM.

With `COC(=O)c1ccc(CCC[N+]2(CCCc3ccc(C(=O)OC)cc3)CCCC(NC(=O)c3nc(Cl)c(N)nc3N)C2)cc1` (stereo not shown) [Example 4, 3-[(3,5-Diamino-6-chloro-pyrazine-2-carbonyl)-amino]-1,1-bis-[3-(4-methoxycarbonylphenyl)-propyl]-piperidinium chloride], the IC50 is 0.34 µM.

Take `Nc1nc(N)c(C(=O)NC2CCC[N+](CCCc3ccc(C(=O)[O-])cc3)(CCCc3ccc(C(=O)O)cc3)C2)nc1Cl` (stereo not shown) [Example 4.1, 1,1-Bis-[3-(4-carboxy-phenyl)-propyl]-3-[(3,5-diamino-6-chloro-pyrazine-2-carbonyl)amino]-piperidinium]: the IC50 came out at 0.35 µM.

Take `Nc1nc(N)c(C(=O)NC2CCC[N+](CCCc3ccc(C(=O)NCCOCCOCCO)cc3)(CCCc3ccc(C(=O)NCCOCCOCCO)cc3)C2)nc1Cl` (stereo not shown) [Example 4.2, 3-[(3,5-Diamino-6-chloro-pyrazine-2-carbonyl)-amino]-1,1-bis-[3-(4-{2-[2-(2-hydroxyethoxy)-ethoxy)]-ethylcarbamoyl}-phenyl)-propyl]-piperidinium chloride]: the IC50 was determined as 0.76 µM.

Regarding `COC(=O)c1ccc(CCC[N+]2(CCCc3ccc(OC)cc3)CCCC(NC(=O)c3nc(Cl)c(N)nc3N)C2)cc1` (stereo not shown) [Example 5, 3-[(3,5-Diamino-6-chloro-pyrazine-2-carbonyl)-amino]-1-[3-(4-methoxycarbonyl-phenyl)propyl]-1-[3-(4-methoxy-phenyl)-propyl]-piperidinium chloride], the IC50 amounted to 0.038 µM.

Take `COc1ccc(CCC[N+]2(CCCc3ccc(C(=O)[O-])cc3)CCCC(NC(=O)c3nc(Cl)c(N)nc3N)C2)cc1` (stereo not shown) [Example 5.1, 1-[3-(4-Carboxy-phenyl)-propyl]-3-[(3,5-diamino-6-chloro-pyrazine-2-carbonyl)-amino]-1-[3-(4-methoxy-phenyl)-propyl]-piperidinium]: the IC50 came to 0.11 µM.

Consider `COC(=O)CNC(=O)c1ccc(CCC[N+]2(CCCc3ccc(OC)cc3)CCCC(NC(=O)c3nc(Cl)c(N)nc3N)C2)cc1` (stereo not shown) [Example 5.2, 3-[(3,5-Diamino-6-chloro-pyrazine-2-carbonyl)-amino]-1-{3-[4-(methoxycarbonylmethylcarbamoyl)-phenyl]-propyl}-1-[3-(4-methoxy-phenyl)-propyl]-piperidinium chloride], for which the half-maximal inhibitory concentration (IC50) was 0.042 µM.

As a reminder, the IC50 is the concentration needed to halve the response being measured.
